The values below come from ChEMBL document CHEMBL5143593 (Eur J Med Chem, 2022).

Series [1] concerns the target 5-hydroxytryptamine receptor 2A (Homo sapiens, UniProt P28223). In words: Displacement of [3H]-ketanserin from human 5-HT2A receptor expressed in CHO-K1 cells measured after 1.5 hrs by Microbeta plate reader method. Format: cell-based.
Series [2] addresses T1, 5-hydroxytryptamine receptor 1A (Homo sapiens, UniProt P08908).
T1 sequence (P08908 whole entry): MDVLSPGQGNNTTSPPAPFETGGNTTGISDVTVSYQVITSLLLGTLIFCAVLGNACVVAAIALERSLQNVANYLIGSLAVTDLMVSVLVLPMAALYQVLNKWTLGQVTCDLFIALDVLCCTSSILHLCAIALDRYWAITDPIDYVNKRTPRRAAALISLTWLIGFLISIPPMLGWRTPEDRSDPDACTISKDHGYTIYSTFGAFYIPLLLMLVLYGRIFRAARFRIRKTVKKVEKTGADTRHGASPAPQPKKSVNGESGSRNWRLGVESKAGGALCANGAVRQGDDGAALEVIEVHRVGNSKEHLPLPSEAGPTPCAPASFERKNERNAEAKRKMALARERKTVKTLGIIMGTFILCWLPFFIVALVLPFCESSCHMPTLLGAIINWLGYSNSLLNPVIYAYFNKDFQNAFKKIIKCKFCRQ
Description: Displacement of [3H]-8-OH-DPAT from human 5-HT1A receptor expressed in HEK293 cells measured after 1 hr by Microbeta plate reader method. The class given is cell-based. (In general: In a radioligand displacement assay an active substance lowers the binding of a labelled ligand.)

The target of series [3] is 5-hydroxytryptamine receptor 7 (Homo sapiens, UniProt P34969). Description: Displacement of [3H]-5-CT from human 5-HT7b receptor expressed in HEK293 cells measured after 1 hr by Microbeta plate reader method. Format: cell-based.
Series [4] is described as follows: Permeability of compound at pH 7.4 by PAMPA assay. On the technique in general: The PAMPA barrier holds no transporters, so it reflects passive diffusion.
Series [5] can be described thus: Toxicity in male Wistar rat assessed as maximum tolerated dose administered intraperitoneally. The note with it: in vivo, route ip.
A short description of series [6]: Toxicity in male Wistar rat assessed as abnormalities (breathing changes, low activity, abdominal pain during manipulation, narrowed eyes and provoked vocalization) at 27.8 mg/kg, ip. Format: organism-based. The note with it: in vivo.
Series [7] can be described thus: Toxicity in male Wistar rat assessed as abnormalities (low activity and narrowed eyes) at 27.8 mg/kg, ip measured after 24 hrs. The class given is organism-based. To be noted: in vivo.
A short description of series [8]: Toxicity in male Wistar rat assessed as abnormalities (breathing changes, low activity and narrowed eyes) at 20 mg/kg, ip measured after 4 hrs. Format: organism-based. To be noted: in vivo.
Series [9] can be described thus: Toxicity in male Wistar rat assessed as abnormalities in liver at 20 mg/kg, ip. The class given is organism-based. The note with it: in vivo.
Series [10] in a line: Toxicity in male Wistar rat assessed as abnormalities in kidney at 20 mg/kg, ip. The class given is organism-based. The note with it: in vivo.
Series [11] is described as follows: Toxicity in male Wistar rat assessed as abnormalities in blood plasma at 20 mg/kg, ip. The class given is organism-based. The note with it: in vivo.
The nature of series [12]: Half-life in male Wistar rat brain at 20 mg/kg, ip. Format: ADME, organism-based.
Series [13] in a line: Tmax in male Wistar rat brain at 20 mg/kg, ip. The class given is ADME, organism-based.
Series [14] can be described thus: Cmax in male Wistar rat brain at 20 mg/kg, ip. Format: ADME, organism-based. Also on record: dose 20 mg/kg, route ip.
The nature of series [15]: AUC in male Wistar rat brain at 20 mg/kg, ip. Format: ADME, organism-based. Also on record: dose 20 mg/kg, route ip. To be noted: in vivo.
A short description of series [16]: MRT in male Wistar rat brain at 20 mg/kg, ip. Format: ADME, organism-based.
Series [17] can be described thus: Half-life in male Wistar rat plasma at 20 mg/kg, ip. Format: ADME, organism-based.
Series [18] in a line: Tmax in male Wistar rat plasma at 20 mg/kg, ip. The class given is ADME, organism-based.
Series [19] in a line: Cmax in male Wistar rat plasma at 20 mg/kg, ip. Format: ADME, organism-based. Also on record: dose 20 mg/kg, route ip.
The nature of series [20]: AUC in male Wistar rat plasma at 20 mg/kg, ip. The class given is ADME, organism-based. To be noted: in vivo. Also on record: dose 20 mg/kg, route ip.
Series [21] in a line: MRT in male Wistar rat plasma at 20 mg/kg, ip. The class given is ADME, organism-based.

5-hydroxytryptamine receptor 7, sequence (P34969 whole entry, the tested form may be a part): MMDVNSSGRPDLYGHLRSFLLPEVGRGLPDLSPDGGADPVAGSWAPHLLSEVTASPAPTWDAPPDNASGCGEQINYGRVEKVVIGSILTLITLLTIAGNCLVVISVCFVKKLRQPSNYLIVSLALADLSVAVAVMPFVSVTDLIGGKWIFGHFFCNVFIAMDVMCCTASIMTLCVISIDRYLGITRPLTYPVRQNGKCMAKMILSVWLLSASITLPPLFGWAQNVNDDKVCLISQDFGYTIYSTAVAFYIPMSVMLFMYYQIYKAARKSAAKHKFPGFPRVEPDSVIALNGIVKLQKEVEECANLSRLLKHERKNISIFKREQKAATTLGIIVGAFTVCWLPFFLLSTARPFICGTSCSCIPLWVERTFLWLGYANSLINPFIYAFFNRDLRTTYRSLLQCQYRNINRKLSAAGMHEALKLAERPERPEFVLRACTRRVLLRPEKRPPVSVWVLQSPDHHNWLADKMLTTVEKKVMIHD
5-hydroxytryptamine receptor 2A, sequence (P28223 whole entry): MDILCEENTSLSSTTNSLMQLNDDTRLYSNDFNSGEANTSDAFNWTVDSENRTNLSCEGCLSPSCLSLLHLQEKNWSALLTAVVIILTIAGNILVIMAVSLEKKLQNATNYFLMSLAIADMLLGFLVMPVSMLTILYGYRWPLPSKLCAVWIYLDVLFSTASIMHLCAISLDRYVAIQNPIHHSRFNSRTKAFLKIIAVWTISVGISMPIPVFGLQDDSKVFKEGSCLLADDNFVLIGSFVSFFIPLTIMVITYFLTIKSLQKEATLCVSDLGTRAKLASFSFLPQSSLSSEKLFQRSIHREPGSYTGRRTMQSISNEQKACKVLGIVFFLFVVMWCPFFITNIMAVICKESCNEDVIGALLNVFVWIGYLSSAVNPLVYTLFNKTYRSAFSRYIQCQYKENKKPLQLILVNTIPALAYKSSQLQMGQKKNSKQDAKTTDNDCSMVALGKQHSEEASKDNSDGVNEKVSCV

The Ki is a measure of affinity in units of concentration, obtained from inhibition or displacement. What is called Papp is a coefficient for how fast a substance crosses the barrier. The low end stands for poor permeation, the high end for ready permeation. One may read the MTD as the highest dose tested that stayed within the study's limit of toxicity. As a reminder, the half-life is the time needed for the level to fall by half in the phase considered. What is called Tmax is the time from dosing to the highest level. A word on the Cmax: it is the peak of the concentration-time curve. The AUC is the area under the concentration-time curve, a measure of exposure. Low values mean low exposure, high ones high exposure. Usually MRT stands for the average time that molecules of a dose stay in the body. As to `COc1ccccc1N1CCN(CCCN2CCN(c3ncccc3C#N)CC2)CC1`, the values for the Ki in series [1], in series [2] and in series [3] were 23000 nM, 18 nM and 2700 nM, respectively. Also, the Papp in series [4] is 20 ×10⁻⁶ cm/s. Besides, in [5], the MTD turned out to be 2.78 mg/kg. Also, the Activity entry in series [6] was “Toxic”; in series [7], “Toxic”; in series [8], “Toxic”; in series [9] it was “Non-Toxic”; in series [10], “Non-Toxic”; in [11], “Non-Toxic”. The half-life worked out at 26.7 min in series [12] and 48.8 min in series [17]. The Tmax in [13] and in series [18] was 5 min in each case. Also, the Cmax in series [14] was found to be 3.52 µM; in series [19], 3.21 µM. In addition, the AUC was 272930.4 nmol·min/L in series [15] and 91958.8 nmol·min/L in [20]. For the same molecule, the MRT was 57.8 min in series [16] and 61.4 min in series [21].
